According to patent US20100028298A1 (priority 2006, published 2010):
Numbered stars: 1 amine (or outer) side, 2 acyl side, 3 side chain; on linkers, the order of the positions; unused ones are H or OH. Bridge positions count the residues as written; N and C are the ends. Square brackets hold non-standard residues; d marks the D form. Peptide text beside a SMILES is read from it. X1 = CC1CC(C2=NC(C(=O)[*:2])CS2)N1[*:1]; NMeV = CN[CH](C(=O)O)C(C)C; X2 = O=C(C(O)CO[*:2])[*:1]; Pip = O=C(O)[CH]1CCCCN1; Dhb = C/C=C(\N)C(=O)O

What was measured:
[1] = tested on: interferon alpha activity in MXRage cells; experiment: Cell-based virus-free type I interferon activity test, Mx-RAGE fibroblasts with eGFP reporter, flow cytometry, with interferon alpha; design: species or system murine
[2] = tested on: interferon beta activity in MXRage cells; experiment: Cell-based virus-free type I interferon activity test, Mx-RAGE fibroblasts with eGFP reporter, flow cytometry, with interferon beta; design: species or system murine; details: interferon beta standard curve, vioprolide A 50 ng/ml, FIG. 4 right panel
[3] = tested on: Vesicular stomalitis virus (VSV, ssRNA negative); format: cell-based; details: MDBK cells, rhIFN-α2b alone and with 31 and 167 ng/ml vioprolide A, FIG. 5
[4] = tested on: Herpes simplex virus strain 1 (HSV-1, dsDNA); experiment: Antiviral effect on HSV-1, cytopathic effect on Vero cells; format: cell-based; details: Vero cells infected with 10^4 PFU/ml HSV-1, different concentrations of vioprolide A alone, FIG. 6
[5] = tested on: human cervical carcinoma derived cell line WISH; experiment: Antiproliferative activity on WISH cells; format: cell-based; details: in the presence of rhIFN-α2b, FIG. 7
Method: FIG. 7: The antiproliferative effect of vioprolide A. The proliferation of WISH cells was tested at different concentrations of vioprolide A alone (grey) and in the present of IFN-α2b (black).
Further, the antiproliferative effect of vioprolide A has been determined. Using standard assays, the antiproliferative activity was evaluated with human cervical carcinoma derived cell line WISH.

## C/C=C1\NC(=O)C2CSC(=N2)C2CC(C)N2C(=O)C(CC(C)C)NC(=O)C(C)NC(=O)C(O)COC(=O)C(C(C)C)N(C)C(=O)C(C(C)O)NC(=O)C2CCCCN2C1=O (stereo not shown) [vioprolide A] (AL[X1][Dhb][Pip]T[NMeV]; linker N-C via X2; configuration not given here)
[1]; interferon alpha standard curve, vioprolide A 50 ng/ml, FIG. 4 left panel
  increase of GFP positive cells: remarkable increase
[1]; vioprolide A 50 ng/ml, FIG. 4 left panel
  reduction of the amount of interferon alpha to obtain the same percent of GFP positive cells: about 10 fold
[1]; vioprolide A 0.2 to 400 ng/ml, serial two-fold dilutions, FIG. 3
  increase of GFP positive cells with vioprolide plus interferon type I compared to interferon type I alone: ≤ 4 fold
[2]
  increase of GFP positive cells: remarkable increase
[3]
  anti-viral activity of IFN on VSV (cytopathic effect): able to enhance the anti-viral activity of IFN on VSV
[4]
  anti-viral activity on HSV-1 (cytopathic effect): anti-viral activity
[5]
  effect on cell growth inhibition: additive effect
